Experiment [1] relates to human colon adenocarcinoma HT-29. In words: MTT antiproliferative assay, HT-29. It is filed as cell-based. The following applies: mean of 3 independent experiments, read-out: Antiproliferative activity IC50 ± S.D., HT-29.
In experiment [2] the test system is human promyelocytic leukemia HL-60. The experiment can be described thus: MTT antiproliferative assay, HL-60. In kind it is cell-based. As to conditions: mean of 3 independent experiments, read-out: Antiproliferative activity IC50 ± S.D., HL-60 (head prints HL-6).
Experiment [3] relates to lung adenocarcinoma H1650. The experiment can be described thus: MTT antiproliferative assay, H1650. The following applies: mean of 3 independent experiments, read-out: Antiproliferative activity IC50 ± S.D., H1650. It is filed as cell-based. The procedure:
Cell proliferation was evaluated in cell lines by the MTT assay in triplicates. 10^4 cells were plated in a 96-well microtiter plate in a final volume of 100 μl of culture medium. Cells were treated for 24 h with test compound at 37 °C with 5% CO2. After treatment, the cells were immediately incubated with 10 μl MTT (5.0 mg/mL) for 4 h at 37°C. The cells were then lysed in 100 μl of lysis buffer (isopropanol, conc. HCl and Triton X-100) for 10 min at room temperature and 300 rpm/min shaking. The enzymatic reduction of MTT to formazan crystals that dissolved in DMSO was quantified by photometry at 570 nm. […] 5-Flurouracil was used as a positive control.
For orientation: Tetrazolium assays rely on reduction of a dye to a coloured formazan, in cell work by metabolically active cells.

The target of another experiment is T1, Pim-1 kinase (Homo sapiens, UniProt P11309).
T1 construct: purchased Cell Signaling Technology
The experiment can be described thus: Pim-1 kinase assay (HTScan Kinase Assay). In kind it is biochemical.

In a further experiment the test system is Pim-1. On the set-up: method as in Nakano et al., 2012. As to conditions: ligand of PDB code 3umw; ref Nakano et al., 2012; read-out: Pim-1 IC50 of co-crystalized ligand; cited from earlier work.
Where [4] appears, read: Homo sapiens, NCI-H1650, 24 h treatment.
Where [5] appears, read: Homo sapiens, HT-29, 24 h treatment.
[6] abbreviates: Homo sapiens, HL-60, 24 h treatment.
Where [7] appears, read: 50 ng Pim-1, 200 μM ATP, 1.5 μM biotinylated BAD Ser112 peptide, 30 min, mean of 3 independent experiments, read-out: In-vitro Pim-1 kinase inhibitory activity IC50 ± S.D.

Read-outs that look alike come from different tables or passages of the source.

T1 sequence (P11309 whole entry): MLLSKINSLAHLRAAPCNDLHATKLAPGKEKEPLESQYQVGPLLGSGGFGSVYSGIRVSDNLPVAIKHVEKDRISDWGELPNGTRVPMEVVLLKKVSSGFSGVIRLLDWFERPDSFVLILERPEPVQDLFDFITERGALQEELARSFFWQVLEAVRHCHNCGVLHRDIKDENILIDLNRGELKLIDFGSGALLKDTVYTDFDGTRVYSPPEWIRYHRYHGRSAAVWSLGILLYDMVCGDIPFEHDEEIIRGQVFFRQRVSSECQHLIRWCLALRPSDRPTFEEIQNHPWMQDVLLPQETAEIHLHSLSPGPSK

A word on the IC50: it is the concentration that inhibits the measured activity by half. Turning to `O=c1[nH]cc(F)c(=O)[nH]1` [5-Flurouracil, reference compound], the 50% inhibitory concentration (IC50) was 0.3 ± 0.35 µM in experiment [1] (24 h treatment), 0.2 ± 0.43 µM in experiment [2] (24 h treatment) and 0.5 ± 0.67 µM in experiment [3] (24 h treatment).
As to `COc1ccc(/C=C/C(=N)/C=C2/C(=O)Nc3cc(Br)ccc32)cc1` [Compound 1, (E)-6-bromo-3-((E)-2-imino-4-(4-methoxyphenyl)but-3-en-1-ylidene)indolin-2-one], the IC50 in experiment [3] (setting [4]) was over 100 µM.
Take `CC(=O)C[C@@]1(O)C(=O)Nc2cc(Br)ccc21` [Compound 2, (S) enantiomer of (R)-6-Bromo-3-hydroxy-3-(2 oxopropyl)indolin-2-one]: the IC50 was over 100 µM in experiment [1] (setting [5]), over 100 µM in experiment [2] (setting [6]), over 100 µM in experiment [3] (setting [4]) and over 20 µM at Pim-1 kinase (setting [7]).
For the compound `O=C1Nc2cc(Br)ccc2[C@@]1(O)c1c[nH]c2ccccc12` [Compound 3, (S) 6-bromo-3-hydroxy-3-(1H-indol-3-yl) indolin-2-one], in experiment [3] (setting [4]), the IC50 was over 100 µM.
In the case of `C[C@@H]1C[C@H]2CC[C@H](O2)[C@H](C)C(=O)O[C@@H](C)C[C@@H]2CC[C@@H](O2)[C@@H](C)C(=O)O[C@H](C)C[C@H]2CC[C@H](O2)[C@H](C)C(=O)O[C@@H](C)C[C@@H]2CC[C@@H](O2)[C@@H](C)C(=O)O1` [Compound 4, Nonactin], the concentration for half-maximal inhibition (IC50) was over 100 µM in experiment [1] (setting [5]), over 100 µM in experiment [2] (setting [6]), over 100 µM in experiment [3] (setting [4]) and over 20 µM at Pim-1 kinase.
Consider `CC(c1c[nH]c2ccccc12)c1c[nH]c2ccccc12` [Compound 5, vibrindole], for which the IC50 in experiment [1] (setting [5]) was over 100 µM; in experiment [2] (setting [6]), over 100 µM; in experiment [3] (setting [4]), over 100 µM; on Pim-1 kinase (setting [7]), over 20 µM.
`O=Cc1c[nH]c2ccccc12` [Compound 6, indole-3-carbaldehyde]: the 50% inhibitory concentration (IC50) in experiment [1] (setting [5]) is over 100 µM; in experiment [2] (setting [6]), over 100 µM; in experiment [3] (setting [4]), over 100 µM; at Pim-1 kinase (setting [7]) it was over 20 µM.
Take `OCCc1c[nH]c2ccccc12` [Compound 7, tryptophol]: the IC50 in experiment [1] (setting [5]) was over 100 µM; in experiment [2] (setting [6]), over 100 µM; in experiment [3] (setting [4]) it was over 100 µM; on Pim-1 kinase (setting [7]) it was over 20 µM.
Turning to `O=C(O)C(=O)Cc1c[nH]c2ccccc12` [Compound 8, indole-3-pyruvic acid], the half-inhibitory concentration (IC50) in experiment [1] (setting [5]) was over 100 µM; in experiment [2] (setting [6]) it was over 100 µM; in experiment [3] (setting [4]), over 100 µM; at Pim-1 kinase (setting [7]) it was over 20 µM.
Take `Cc1c[nH]c2ccccc12` [Compound 9, skatole]: the 50% inhibitory concentration (IC50) in experiment [1] (setting [5]) is over 100 µM; in experiment [2] (setting [6]) it was over 100 µM; in experiment [3] (setting [4]), over 100 µM; at Pim-1 kinase (setting [7]) it was over 20 µM.
As for `O=C(O)c1ccc2ccccc2c1O` [Compound 10, 1-hydroxy-2-naphthoic acid], the concentration for half-maximal inhibition (IC50) in experiment [1] (setting [5]) was over 100 µM; in experiment [2] (setting [6]) it was over 100 µM; in experiment [3] (setting [4]), over 100 µM; at Pim-1 kinase (setting [7]), over 20 µM.
Turning to `O=C(O)c1cc(O)c2ccccc2c1O` [Compound 11, 1,4 dihydroxy-2-naphthoic acid], the IC50 in experiment [1] (setting [5]) was over 100 µM; in experiment [2] (setting [6]), over 100 µM; in experiment [3] (setting [4]), over 100 µM; at Pim-1 kinase (setting [7]), over 20 µM.
Take `COc1ccc2c(c1CN1CCNCC1)OC(=Cc1n[nH]c3ccccc13)C2=O` [co-crystalized ligand]: in the experiment on Pim-1, the concentration for half-maximal inhibition (IC50) was 0.003 µM.

The values are drawn from publication PMC6262321, “New Pim-1 Kinase Inhibitor From the Co-culture of Two Sponge-Associated Actinomycetes” (Frontiers in Chemistry, 2018).
